Measurements published in the supplement of paper PMC10307832.

Columns and labels:
Experiment in all cases: relative viability (nuclei count vs DMSO), 5 days (fraction); higher = more cells survive
VX-11e + AZD7762 = compound: CC1=CN=C(N=C1C2=CNC(=C2)C(=O)N[C@H](CO)C3=CC(=CC=C3)Cl)NC4=C(C=C(C=C4)F)Cl [VX-11e] + NC(=O)Nc1cc(-c2cccc(F)c2)sc1C(=O)N[C@H]1CCCNC1 [AZD7762] (partner 0.2 µM)
In short: (§1)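 Dosing by pin tool came one day after lung cancer cell lines were seeded in 1536-well plates, using either one drug or a fixed anchor-drug dose plus five library-drug doses (not always all listed) in √10 steps. After 5 days, nuclei were counted on 4× images. Relative viability is treated-well nuclei count divided by vehicle-well nuclei count, and values are medians of duplicate plates.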

VX-11e + Decitabine = compound: CC1=CN=C(N=C1C2=CNC(=C2)C(=O)N[C@H](CO)C3=CC(=CC=C3)Cl)NC4=C(C=C(C=C4)F)Cl [VX-11e] + Nc1ncn([C@H]2C[C@H](O)[C@@H](CO)O2)c(=O)n1 [Decitabine] (partner 2 µM)
In short: as §1

VX-11e + Lapatinib = compound: CC1=CN=C(N=C1C2=CNC(=C2)C(=O)N[C@H](CO)C3=CC(=CC=C3)Cl)NC4=C(C=C(C=C4)F)Cl [VX-11e] + CS(=O)(=O)CCNCc1ccc(-c2ccc3ncnc(Nc4ccc(OCc5cccc(F)c5)c(Cl)c4)c3c2)o1 [Lapatinib] (partner 2 µM)
In short: as §1

VX-11e + Olaparib = compound: CC1=CN=C(N=C1C2=CNC(=C2)C(=O)N[C@H](CO)C3=CC(=CC=C3)Cl)NC4=C(C=C(C=C4)F)Cl [VX-11e] + O=C(c1cc(Cc2n[nH]c(=O)c3ccccc23)ccc1F)N1CCN(C(=O)C2CC2)CC1 [Olaparib] (partner 8 µM)
In short: as §1

| Cell Line | relative viability (VX-11e + AZD7762; first compound 0.04 µM) | relative viability (VX-11e + AZD7762; first compound 0.1265 µM) | relative viability (VX-11e + AZD7762; first compound 1.265 µM) | relative viability (VX-11e + AZD7762; first compound 4 µM) | relative viability (VX-11e + Decitabine; first compound 0.04 µM) | relative viability (VX-11e + Decitabine; first compound 0.1265 µM) | relative viability (VX-11e + Decitabine; first compound 1.265 µM) | relative viability (VX-11e + Decitabine; first compound 4 µM) | relative viability (VX-11e + Lapatinib; first compound 0.04 µM) | relative viability (VX-11e + Lapatinib; first compound 0.1265 µM) | relative viability (VX-11e + Lapatinib; first compound 1.265 µM) | relative viability (VX-11e + Lapatinib; first compound 4 µM) | relative viability (VX-11e + Olaparib; first compound 0.04 µM) | relative viability (VX-11e + Olaparib; first compound 0.1265 µM) | relative viability (VX-11e + Olaparib; first compound 1.265 µM) | relative viability (VX-11e + Olaparib; first compound 4 µM) | relative viability (VX-11e + AZD7762; first compound 0.4 µM) | relative viability (VX-11e + Decitabine; first compound 0.4 µM) | relative viability (VX-11e + Lapatinib; first compound 0.4 µM) | relative viability (VX-11e + Olaparib; first compound 0.4 µM) |
| --- | --- | --- | --- | --- | --- | --- | --- | --- | --- | --- | --- | --- | --- | --- | --- | --- | --- | --- | --- | --- |
| HCC-366 | 0.429 | 0.235 | 0.21 | 0.16 | 0.402 | 0.348 | 0.322 | 0.217 | 1 | 0.971 | 0.879 | 0.759 | 0.386 | 0.372 | 0.271 | 0.208 |  |  |  |  |
| HCC-827 | 0.162 | 0.222 | 0.349 | 0.21 | 0.266 | 0.32 | 0.431 | 0.324 | 0.191 | 0.229 | 0.205 | 0.207 | 0.556 | 0.609 | 0.768 | 0.516 | 0.212 | 0.342 | 0.206 | 0.724 |
| HOP-62 | 0.486 | 0.644 | 0.315 | 0.166 | 0.223 | 0.239 | 0.248 | 0.312 | 1.14 | 0.979 | 0.27 | 0.526 | 0.668 | 0.248 | 0.304 | 0.24 | 0.234 | 0.213 | 0.776 | 0.174 |
| IA-LM |  |  |  |  |  |  |  |  | 0.71 | 0.945 | 0.17 | 0.126 | 0.877 | 0.864 | 0.536 | 0.173 |  |  | 0.853 | 0.963 |
| LCLC-103H | 0.766 | 0.71 | 0.606 | 0.654 | 0.726 | 0.701 | 0.742 | 0.608 |  |  |  |  | 0.787 | 0.748 | 0.638 | 0.667 | 0.801 | 0.726 |  | 0.719 |
| NCI-H441 | 1.23 | 1.12 | 1.17 | 1.05 | 0.282 | 0.273 | 0.218 | 0.306 |  |  |  |  | 0.553 | 0.572 | 0.702 | 0.591 |  |  |  |  |
| NCI-H520 |  |  |  |  | 0.539 | 0.533 | 0.668 | 0.476 | 0.951 | 0.791 | 0.87 | 0.572 | 0.383 | 0.327 | 0.298 | 0.271 |  | 0.492 | 0.687 | 0.326 |
| NCI-H522 | 0.812 | 0.969 | 0.671 | 0.671 | 0.641 | 0.648 | 0.599 | 0.573 |  |  |  |  | 0.588 | 0.594 | 0.545 | 0.533 | 0.82 | 0.648 |  | 0.457 |
| NCI-H661 |  |  |  |  | 0.514 | 0.491 | 0.52 | 0.432 | 0.527 | 0.5 | 0.386 | 0.314 | 0.779 | 0.777 | 0.724 | 0.61 |  | 0.502 | 0.446 | 0.719 |
| NCI-H1299 |  |  |  |  |  |  |  |  | 0.984 | 0.953 | 0.918 | 0.559 | 1 | 0.967 | 0.92 | 0.519 |  |  | 1.1 | 0.968 |
| NCI-H1563 |  |  |  |  |  |  |  |  | 0.938 | 0.795 | 0.854 | 0.864 |  |  |  |  |  |  | 0.529 |  |
| NCI-H1648 |  | 0.639 | 0.703 | 0.733 |  | 0.584 | 0.654 | 0.42 |  |  |  |  |  | 0.658 | 0.855 | 0.52 | 0.641 | 0.491 |  | 0.765 |
| NCI-H1650 |  |  |  |  | 0.523 | 0.406 | 0.522 | 0.526 | 0.76 | 0.626 | 0.289 | 0.444 | 0.685 | 0.851 | 0.793 | 0.807 |  | 0.468 | 0.204 | 0.814 |
| NCI-H1703 |  |  | 0.121 | 0.122 |  |  |  |  | 1.49 | 1.18 | 1.08 | 0.791 | 0.403 | 0.591 | 0.393 | 0.316 | 0.141 |  |  |  |
| NCI-H2009 |  |  |  |  | 0.377 | 0.394 | 0.293 | 0.244 | 0.944 | 0.891 | 0.265 | 0.438 | 0.684 | 0.635 | 0.769 | 0.378 |  | 0.369 | 0.729 | 0.805 |
| NCI-H2023 |  |  |  |  | 0.207 | 0.222 | 0.256 | 0.228 | 0.72 | 0.874 | 0.387 | 0.303 | 0.541 | 0.45 | 0.475 | 0.346 |  | 0.222 | 0.1 | 0.507 |
| NCI-H2228 |  |  |  |  |  |  |  |  | 1.23 | 1.17 | 0.691 | 0.309 | 0.681 | 0.631 | 0.417 | 0.21 |  |  | 0.158 | 0.362 |
| NCI-H2342 |  | 0.462 | 0.508 | 0.466 |  | 0.797 | 0.787 | 0.6 |  |  |  |  |  | 0.476 | 0.471 | 0.367 | 0.604 | 0.752 |  | 0.414 |
| SK-LU-1 |  |  |  |  | 0.619 | 0.589 | 0.668 | 0.308 | 0.897 | 0.744 | 0.752 | 0.272 | 0.537 | 0.446 | 0.365 | 0.239 |  | 0.472 | 0.524 | 0.394 |
| SK-MES-1 |  |  |  |  | 0.341 | 0.384 | 0.4 | 0.272 | 0.452 | 0.414 | 0.436 | 0.282 | 0.732 | 0.636 | 0.493 | 0.265 |  | 0.363 | 0.47 | 0.826 |
| SW 900 | 0.439 | 0.529 | 0.265 | 0.411 | 0.443 | 0.491 | 0.529 | 0.455 |  |  |  |  | 0.879 | 0.888 | 0.836 | 0.581 |  |  |  |  |
| SW 1573 |  |  |  |  | 0.384 | 0.446 | 0.372 | 0.22 | 1.11 | 0.979 | 0.891 | 0.472 | 0.551 | 0.472 | 0.398 | 0.23 |  | 0.363 | 1.07 | 0.453 |
| UMC-11 |  |  |  |  |  | 0.495 | 0.454 | 0.594 | 0.546 | 0.94 | 0.602 | 0.758 | 0.377 | 0.369 | 0.335 | 0.38 |  | 0.472 | 0.712 | 0.331 |
